{
  "source": "patent US20160177395A1",
  "about": "“BIOMARKERS FOR THE PREDICTION OF RENAL INJURY” (priority 2007, published 2016)",
  "system": "kidney tissues of treated or untreated rats",
  "assay": "Real-time qRT-PCR of marker transcripts in kidney tissue panel, discovery stage (Table 22)",
  "assay_type": "in vivo, rat",
  "set-up": "AI502869_DB71_seg0 normalized Real Time PCR expression: unit not given beside the values",
  "details": "listed as CadCl; for normalized Real Time PCR RATRAB13X_DB81_seg15-17 / normalized Real Time PCR RATRAB13X_DB81_seg22 / normalized Real Time PCR W33294_DB81_seg23 / normalized Real Time PCR W33294_DB81_seg44 / normalized Real Time PCR MMU09507_DB81_seg15 / normalized Real Time PCR MUSCYCG1R_DB81_seg19-20: kidney",
  "description": "Before RT preparation the RNA was treated with DNA-free (Ambion, cat. No. AM1906) DNase treatment and removal—according to manufacturer protocol. DNase procedure was repeated until no DNA is detected in a PCR reaction using the RNA samples.\nThe mixture is then incubated for 5 min at 65° C. and then quickly chilled on ice. Thereafter, 20 μl of 5× SuperscriptII first strand buffer (Invitrogen, Cat. No. Y00146), 9.6 μl 0.1M DTT (Invitrogen, Cat. No. Y00147) and 160 units RNasin (Promega, Cat. No. N251A) are added, and the mixture is incubated for 10 min at 25° C., followed by further incubation at 42° C. for 2 min. […] The resulting cDNA is diluted 1:20 in TE buffer (10 mM Tris pH=8, 1 mM EDTA pH=8).\ncDNA (5 μl), prepared as described above, is used as a template in Real-Time PCR reactions using the SYBR Green I assay (PE Applied Biosystem) with specific primers in 100 nM concentration if not indicated otherwise and UNG Enzyme (Eurogentech or equal) Amplification is effected as follows: 50° C. for 2 min, 95° C. for 10 min, and then 40 cycles of 95° C. for 15 sec, followed by 60° C. for 1 min (if not indicated otherwise). Amplification step is followed by dissociation step. Detection is performed by using the PE Applied Biosystem SDS 7000. The cycle in which the reactions achieved a threshold level (Ct) of fluorescence is registered and is used to calculate the relative transcript quantity in the RT reactions. Non-detected samples are assigned Ct value of 41 and are calculated accordingly. The relative quantity is calculated using the equation Q=efficiencŷ-Ct. The efficiency of the PCR reaction is calculated from a standard curve, created by using serial dilutions of several reverse transcription (RT) reactions. To minimize inherent differences in the RT reaction, the resulting relative quantities are normalized to normalization factor calculated as follows: […]\nThe relative quantity (Q) of each housekeeping gene in each sample is calculated as described above. In order to calculate the “relative Q relative to MED” each Q for each HSKP gene is divided by the median quantity of this gene in all panel samples. To finally achieve the normalization factor of each sample the geometric mean of all four “relative Q relative to MED” was calculated. The normalization factor was then used for further calculations.\nThe markers of the present invention were tested with regard to their expression in a panel of kidney tissues samples from treated and control rats. Unless otherwise noted, all experimental data relates to the novel polynucleotides and proteins of the present invention, named according to the segment being tested (as expression was tested through RT-PCR as described). Tests were then performed as described in the “Materials and Experimental Procedures” section above.\nThe qRT-PCR measurements were normalized according to each samples normalization factor as described in “RT Preparation and Real-Time qRT-PCR Analysis” and further multiplied by a constant factor for ease of viewing.",
  "key": {"[1]": {"details": "rat kidney, day1, individual animals (F and M)"}, "[2]": {"details": "rat kidney, day1, individual animals"}, "[3]": {"details": "rat kidney, day5, individual animals (F and M)"}},
  "note": "Several values for one entry are separate records, joined by “and”; a condition that tells them apart may be missing. Equal entries are not always repeated.",
  "data": [
    {"molecule": "[Cl][Cd][Cl]", "note": "[Cadmium chloride]", "values": [
      {"measurement": "normalized Real Time PCR RATRAB13X_DB81_seg15-17", "setting": "female rats, day1", "value": "1.63 and 1.8 and 1.55"},
      {"measurement": "normalized Real Time PCR RATRAB13X_DB81_seg22", "setting": "female rats, day1", "value": "1.73 and 1.83 and 1.16"},
      {"measurement": "normalized Real Time PCR W33294_DB81_seg23", "setting": "female rats, day1", "value": "1.9 and 1.74 and 1.36"},
      {"measurement": "normalized Real Time PCR W33294_DB81_seg44", "setting": "female rats, day1", "value": "1.79 and 1.39 and 1.57"},
      {"measurement": "normalized Real Time PCR MMU09507_DB81_seg15", "setting": "female rats, day5", "value": "0.87 and 0.56"},
      {"measurement": "normalized Real Time PCR MUSCYCG1R_DB81_seg19-20", "setting": "female rats, day5", "value": "1.21 and 1.01"},
      {"measurement": "normalized Real Time PCR RATRAB13X_DB81_seg15-17", "setting": "female rats, day5", "value": "1.81 and 0.97"},
      {"measurement": "normalized Real Time PCR RATRAB13X_DB81_seg22", "setting": "female rats, day5", "value": "1.56 and 1.1"},
      {"measurement": "normalized Real Time PCR W33294_DB81_seg23", "setting": "female rats, day5", "value": "1.76 and 1.7"},
      {"measurement": "normalized Real Time PCR W33294_DB81_seg44", "setting": "female rats, day5", "value": "2.05 and 1.37"},
      {"measurement": "normalized Real Time PCR MUSCYCG1R_DB81_seg19-20", "setting": "female rats, day28", "value": "0.54 and 0.62 and 0.56"},
      {"measurement": "normalized Real Time PCR RATRAB13X_DB81_seg15-17", "setting": "female rats, day28", "value": "0.83 and 0.89 and 0.82"},
      {"measurement": "normalized Real Time PCR RATRAB13X_DB81_seg22", "setting": "female rats, day28", "value": "0.7 and 0.9 and 0.46"},
      {"measurement": "normalized Real Time PCR W33294_DB81_seg23", "setting": "female rats, day28", "value": "0.94 and 0.97 and 0.85"},
      {"measurement": "normalized Real Time PCR W33294_DB81_seg44", "setting": "female rats, day28", "value": "0.88 and 0.69 and 0.7"},
      {"measurement": "normalized Real Time PCR MUSCYCG1R_DB81_seg19-20", "setting": "male rats, day1", "value": "0.58 and 1.03 and 0.78"},
      {"measurement": "normalized Real Time PCR RATRAB13X_DB81_seg15-17", "setting": "male rats, day1", "value": "0.73 and 0.92 and 1.01"},
      {"measurement": "normalized Real Time PCR RATRAB13X_DB81_seg22", "setting": "male rats, day1", "value": "0.92 and 1.29 and 0.67"},
      {"measurement": "normalized Real Time PCR W33294_DB81_seg23", "setting": "male rats, day1", "value": "0.62 and 0.31 and 0.37"},
      {"measurement": "normalized Real Time PCR MMU09507_DB81_seg15", "setting": "male rats, day5", "value": "0.33 and 0.49 and 0.38"},
      {"measurement": "normalized Real Time PCR MUSCYCG1R_DB81_seg19-20", "setting": "male rats, day5", "value": "1.22 and 1.12 and 1.04"},
      {"measurement": "normalized Real Time PCR RATRAB13X_DB81_seg15-17", "setting": "male rats, day5", "value": "1.18 and 0.88 and 1.07"},
      {"measurement": "normalized Real Time PCR RATRAB13X_DB81_seg22", "setting": "male rats, day5", "value": "1.65 and 1.58 and 1.21"},
      {"measurement": "normalized Real Time PCR W33294_DB81_seg23", "setting": "male rats, day5", "value": "1.41 and 1.45 and 1.03"},
      {"measurement": "normalized Real Time PCR W33294_DB81_seg44", "setting": "male rats, day5", "value": "1.32 and 1.43 and 1.42"},
      {"measurement": "normalized Real Time PCR MMU09507_DB81_seg15", "setting": "male rats, day28", "value": "0.42 and 0.45"},
      {"measurement": "normalized Real Time PCR RATRAB13X_DB81_seg22", "setting": "male rats, day28", "value": "0.63 and 0.87 and 0.49"},
      {"measurement": "normalized Real Time PCR W33294_DB81_seg23", "setting": "male rats, day28", "value": "0.7 and 0.65"},
      {"measurement": "normalized Real Time PCR W33294_DB81_seg44", "setting": "male rats, day28", "value": "0.73 and 0.53"},
      {"measurement": "H33998_DB71_seg19 normalized Real Time PCR", "setting": "[1]", "value": "2.29 and 2.51 and 0.01 and 0.76 and 0.66 and 0.69"},
      {"measurement": "MUSCYCG1R_DB81_seg15-17 normalized Real Time PCR", "setting": "[1]", "value": "1.91 and 1.36 and 1.68 and 0.61 and 0.73 and 0.36"},
      {"measurement": "RATLRFI_DB71_seg9 normalized Real Time PCR", "setting": "[1]", "value": "0.27 (2×) and 0.33 and 0.32 and 0.36 and 0.23"},
      {"measurement": "RATRAB13X_DB71_seg11-13 normalized Real Time PCR", "setting": "[1]", "value": "0.95 (2×) and 1.2 and 1.05 and 1.22 and 1.14"},
      {"measurement": "RNU24174_DB71_seg8 normalized Real Time PCR", "setting": "[1]", "value": "0.3 and 0.29 and 0.49 and 0.2 and 0.4 and 0.22"},
      {"measurement": "W41270_DB81_seg11 normalized Real Time PCR", "setting": "[1]", "value": "1.44 and 1.78 and 1.48 and 0.5 and 0.62 and 0.43"},
      {"measurement": "W64472_DB81_seg2 normalized Real Time PCR", "setting": "[1]", "value": "1.07 (2×) and 1.1 and 0.55 and 1.45 and 0.41"},
      {"measurement": "W83813_DB81_seg27 normalized Real Time PCR", "setting": "[1]", "value": "2.07 and 2.19 and 1.66 and 0.47 and 0.51 and 0.65"},
      {"measurement": "AA686189_DB71_seg6 normalized Real Time PCR expression", "setting": "[2]", "value": "0.38 (2×) and 0.52 and 0.36 and 0.59 and 0.64"},
      {"measurement": "AA799594_DB71_seg0 normalized Real Time PCR expression", "setting": "[2]", "value": "1.25 and 1.43 and 1.27 and 1.09 and 1.15 and 1.05"},
      {"measurement": "AA964541_DB71_seg0 normalized Real Time PCR expression", "setting": "[2]", "value": "0.41 and 0.55 and 0.3 and 0.28 and 0.6 and 0.56"},
      {"measurement": "AI045075_DB71_seg6 normalized Real Time PCR expression", "setting": "[2]", "value": "0.6 and 0.54 and 0.5 and 0.66 and 0.87 and 0.84"},
      {"measurement": "AI454051_DB71_seg0 normalized Real Time PCR expression", "setting": "[2]", "value": "1.47 and 1.46 and 1.08 and 1.48 and 2.13 and 0.77"},
      {"measurement": "AI502869_DB71_seg0 normalized Real Time PCR expression", "setting": "[2]", "value": "0.54 and 1.37 and 0.56 and 1.14 and 2.59 and 0.86"},
      {"measurement": "AW919147_DB71_seg0 normalized Real Time PCR expression", "setting": "[2]", "value": "1 (2×) and 1.21 and 0.76 and 1.1 and 1.02"},
      {"measurement": "BI293562_DB71_seg2 normalized Real Time PCR expression", "setting": "[2]", "value": "0.36 and 0.4 and 0.61 and 0.5 and 0.51 and 0.39"},
      {"measurement": "H31045_DB71_seg5 normalized Real Time PCR expression", "setting": "[2]", "value": "1.97 and 0.39 (2×) and 0.19 (2×) and 0.18"},
      {"measurement": "H31799_DB71_seg23 normalized Real Time PCR expression", "setting": "[2]", "value": "1 (2×) and 1.24 and 0.91 and 0.9 and 1.15"},
      {"measurement": "H31883_DB71_seg13 normalized Real Time PCR expression", "setting": "[2]", "value": "0.73 and 0.63 and 0.87 and 0.65 and 0.71 and 0.78"},
      {"measurement": "H33998_DB71_seg19 normalized Real Time PCR", "setting": "[3]", "value": "2 and 0.82 and 1.39 and 1.36 and 1.64"},
      {"measurement": "MUSCYCG1R_DB81_seg15-17 normalized Real Time PCR", "setting": "[3]", "value": "1.72 and 1.13 and 1.2 and 0.97 and 1.15"},
      {"measurement": "RATLRFI_DB71_seg9 normalized Real Time PCR", "setting": "[3]", "value": "0.35 and 0.31 and 0.17 and 0.18 and 0.29"},
      {"measurement": "RATRAB13X_DB71_seg11-13 normalized Real Time PCR", "setting": "[3]", "value": "0.95 and 0.9 and 0.75 (2×) and 0.62"},
      {"measurement": "RNU24174_DB71_seg8 normalized Real Time PCR", "setting": "[3]", "value": "0.33 and 0.27 and 0.12 (2×) and 0.13"}
    ]}
  ]
}
